We go through one compound from patent US20080206311A1, “Sucrase Activity Inhibitor, Glucoamylase Activity Inhibitor and Food and Feed Containing the Same” (MITSUI SUGAR CO., LTD., priority 2005, published 2008).

The target of this assay is T1, lactase (Rattus norvegicus, UniProt Q02401).
T1 construct: tissue Sigma Corporation; host or cells: rat small intestine (acetone powder), buffer extract, unpurified
T1 sequence (Q02401 868-1928): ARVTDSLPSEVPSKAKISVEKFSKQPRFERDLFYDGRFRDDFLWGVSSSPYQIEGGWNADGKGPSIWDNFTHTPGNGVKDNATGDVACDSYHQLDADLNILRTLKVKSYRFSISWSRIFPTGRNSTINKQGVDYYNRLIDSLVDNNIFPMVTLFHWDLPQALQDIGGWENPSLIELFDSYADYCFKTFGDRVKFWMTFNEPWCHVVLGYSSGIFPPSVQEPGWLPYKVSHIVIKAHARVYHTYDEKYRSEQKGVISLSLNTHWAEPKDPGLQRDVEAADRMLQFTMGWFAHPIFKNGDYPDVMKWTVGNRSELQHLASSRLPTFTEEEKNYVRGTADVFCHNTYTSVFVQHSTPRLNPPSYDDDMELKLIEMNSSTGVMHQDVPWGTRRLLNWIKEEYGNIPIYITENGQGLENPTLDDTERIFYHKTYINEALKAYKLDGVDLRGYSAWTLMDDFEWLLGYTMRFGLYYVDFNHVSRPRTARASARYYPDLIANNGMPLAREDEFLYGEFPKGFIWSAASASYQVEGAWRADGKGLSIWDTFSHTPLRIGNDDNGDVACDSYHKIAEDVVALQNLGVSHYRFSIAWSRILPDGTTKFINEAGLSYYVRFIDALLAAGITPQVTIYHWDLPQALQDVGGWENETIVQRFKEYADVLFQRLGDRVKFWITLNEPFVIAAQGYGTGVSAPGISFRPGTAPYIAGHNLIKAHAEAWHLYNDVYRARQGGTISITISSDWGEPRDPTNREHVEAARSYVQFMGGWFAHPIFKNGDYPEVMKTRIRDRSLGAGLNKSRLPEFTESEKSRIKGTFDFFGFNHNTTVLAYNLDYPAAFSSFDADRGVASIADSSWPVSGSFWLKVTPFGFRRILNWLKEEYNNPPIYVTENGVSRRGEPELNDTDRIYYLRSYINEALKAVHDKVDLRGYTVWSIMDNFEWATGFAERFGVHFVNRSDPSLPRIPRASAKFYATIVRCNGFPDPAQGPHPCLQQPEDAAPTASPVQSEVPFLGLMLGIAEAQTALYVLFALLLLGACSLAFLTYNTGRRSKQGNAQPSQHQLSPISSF
As to the kind of experiment: Lactase activity inhibition with rat small-intestinal enzyme liquid, substrate lactose. It counts as biochemical. The settings on record: 5% lactose + 5% test sample. Here is the method:
Two grams of rat small-intestinal acetone powder (ex Sigma Corporation) were dissolved in 20 ml of 0.1 M phosphate buffer (pH 6.8), left standing one day at 5° C., and subsequently subjected to centrifugal separation (8000 rpm×15 min.). The supernatant was filtered through a 0.8 μm membrane filter to obtain a small-intestinal enzyme liquid. This liquid contained a mixture of enzymes present in small intestine, such as sucrose, glucoamylase, maltase, and isomaltase.
Each 0.25 ml of the small-intestinal enzyme liquid was added to each 5 ml of Solutions 1 through 5 and placed in a water bath at 37° C. to allow them to react for 60 min. while shaken at 60 strokes/min. After the reaction, they were heated in a boiling water bath for 3 min. for inactivation of the enzymes.
The glucose concentration in each solution after the reaction was measured using the F-kit Glucose (ex Roche). A liberated glucose concentration (g/l) was calculated by subtracting the blank value (0.1 M phosphate buffer alone) and the concentration of glucose originally contained in the test sample from each glucose concentration measured.
Next, each of the liberated glucose concentration was input in the following equation to obtain decomposition inhibition ratio for maltase and sucrose. In the present tests, the substrates and the inhibitors were decomposed by enzymes present in the small-intestinal enzyme liquid. However, the enzymes decomposing the substrates are different from the enzymes decomposing the inhibitors. The decomposition inhibition ratio was determined as a measure for the inhibitory effect. When the inhibitor was added, the glucose concentration was lower than that seen when the substrate alone was reacted. A higher decomposition inhibition ratio means a stronger inhibitory effect.
Decomposition inhibition ratio,%={(A+B)−(AB)}+(A+B)×100 [Equation 1]
wherein (A+B) indicates a sum of a liberated glucose concentration in the control solution containing the test sample alone after the reaction (A) and a liberated glucose concentration in the control solution containing the substrate alone after the reaction (B); and (AB) indicates a liberated glucose concentration in the test solution containing the test sample (A) and the substrate (B), after the reaction.
The procedures in Example 1 were repeated with the exception that palatinit, palatinose or isomaltose was used as a test sample and lactose was used as a substrate. The test samples and the substrate were dissolved in 0.1 M phosphate buffer (pH 6.8) to attain the concentration shown in Table 5 to thereby prepare three test solutions. Besides, each of the test samples or the substrate was dissolved in 0.1 M phosphate buffer (pH 6.8) to attain the concentration shown in Table 5 to thereby prepare control solutions. Each 5 ml of the aforementioned test solutions and the control solutions was subjected to the enzymatic reaction according to the same procedures as in Example 1. The glucose concentration, the fructose concentration and the galactose concentration were measured. The galactose concentration was measured using F-kit Galactose (ex Roche). The liberated galactose concentration, g/l, was calculated by subtracting the blank value (0.1 M phosphate buffer alone) from the measured galactose concentration.

`OC[C@H]1O[C@H](OC[C@H]2OC(O)(CO)[C@@H](O)[C@@H]2O)[C@H](O)[C@@H](O)[C@@H]1O` (some centres unmarked) [palatinose, isomaltulose]: the “Decomposition inhibition ratio, %, against lactase” value turned out to be 3%; the “Lactase activity inhibitory effect (in words)” value is “no lactose inhibitory effect was appreciable”; the Liberated fructose concentration came to 0.23 g/L; the Liberated galactose concentration amounted to 0.12 g/L. Also, the Liberated glucose concentration turned out to be 0.33 g/L.
